Experimental data as given in patent publication US20220330549A1, “USE OF N-BENZYLBENZAMIDE-BASED COMPOUND AS HERBICIDE” (Northwest A&F University, priority 2020, published 2022).

How the values were obtained:
Format in all cases: in vivo
Barnyard grass [1] = test: Herbicidal activity test for indoor pre-emergence soil treatment; design: key: level 1-9; higher = more weed remaining vs blank control; settings: 150 g a.i./ha, visual inspection 21 days after treatment
Method in brief: (§1)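 Pre-emergence soil spray per NY/T 1155.3-2006: weed seeds sown in moistened neutral sandy loam (organic content ≤2%), covered with 0.5–2.0 cm soil, then sprayed 24 h later with a water-diluted 10% emulsifiable concentrate at 150 g(a.i.)/ha. Visual rating after 21 days on a 1–9 scale.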

Piemarker [2] = test: as above; design: key: level 1-9; higher = more weed remaining vs blank control; settings: 150 g a.i./ha, visual inspection 21 days after treatment
Method in brief: as §1

green bristlegrass [3] = test: as above; design: key: level 1-9; higher = more weed remaining vs blank control; settings: 150 g a.i./ha, visual inspection 21 days after treatment
Method in brief: as §1

Amaranthus retroflexus [4] = test: as above; design: key: 1-9 levels; higher = more weed remaining vs blank control; settings: 150 g a.i./ha, visual inspection 21 days after treatment
Method in brief: as §1

Digitaria sanguinalis [5] = test: as above; design: key: 1-9 levels; higher = more weed remaining vs blank control; settings: 150 g a.i./ha, visual inspection 21 days after treatment
Method in brief: as §1

Humulus scandens [6] = test: as above; settings: 150 g a.i./ha, visual inspection 21 days after treatment
Method in brief: as §1

Amaranthus retroflexus [7] = test: Herbicidal activity test for indoor post-emergence spraying on stems and leaves; design: key: grade level by weed remaining vs blank control, e.g. 5 = 10.1-15%; settings: 150 g a.i./ha, visual inspection 21 days after treatment
Method in brief: (§2)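 Following national standard NY/T 1155.4-2006, seedlings raised in a greenhouse receive stem-and-leaf spraying after emergence; 21 days on, surviving weed is compared by eye with the blank control area and assigned a graded level (e.g., level 6 = 15.1–25%).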

Barnyard grass [8] = test: as above; design: key: grade level by weed remaining vs blank control, e.g. 5 = 10.1-15%; settings: 150 g a.i./ha, visual inspection 21 days after treatment
Method in brief: as §2

Digitaria sanguinalis [9] = test: as above; design: key: grade level by weed remaining vs blank control, e.g. 5 = 10.1-15%; settings: 150 g a.i./ha, visual inspection 21 days after treatment
Method in brief: as §2

Humulus scandens [10] = test: as above; design: key: grade level by weed remaining vs blank control, e.g. 5 = 10.1-15%; settings: 150 g a.i./ha, visual inspection 21 days after treatment
Method in brief: as §2

Piemarker [11] = test: as above; design: key: grade level by weed remaining vs blank control, e.g. 5 = 10.1-15%; settings: 150 g a.i./ha, visual inspection 21 days after treatment
Method in brief: as §2

green bristlegrass [12] = test: as above; design: key: grade level by weed remaining vs blank control, e.g. 5 = 10.1-15%; settings: 150 g a.i./ha, visual inspection 21 days after treatment
Method in brief: as §2

Broadleaf weed = test: Post-emergence herbicidal activity test in a paddy field; design: key: level scale; higher level = more weed left vs blank control; settings: 150 g a.i./ha (penoxsulam control 250 g(a.i.)/h)
Method in brief: (§3)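 Efficacy was visually estimated 15 and 30 days after spraying, grading weed coverage relative to an untreated neighbouring plot (level 2 = 0 to 2.5%, level 9 = 67.6 to 100%). Treatments were 150 g(a.i.)/ha from 10% emulsifiable concentrates applied at the 4-5 leaf rice stage, four repeats of 50 m^2 each.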

Cyperaceae = test: as above; design: key: level scale; higher level = more weed left vs blank control; settings: 150 g a.i./ha (penoxsulam control 250 g(a.i.)/h)
Method in brief: as §3

Gramineae = test: as above; design: key: level scale; higher level = more weed left vs blank control; settings: 150 g a.i./ha (penoxsulam control 250 g(a.i.)/h)
Method in brief: as §3

Acalypha australis = test: Field test for weed control in a corn field; settings: 150 g a.i./ha, after treatment
Method in brief: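 Herbicidal activity against weeds was assessed in corn plots by the GB/T 17980.42-2000 method. Corn at the 2–5 leaf stage received water sprays of 10% emulsifiable concentrates at 150 g(a.i.)/ha, four repeats per treatment over 20 m^2. A 25% mesotrione oil dispersion was the reference. Damage symptoms and severity were rated on levels 1-9 relative to weeds in the blank control area.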

Amaranthus retroflexus [13] = test: Field test for weed control in a corn field; settings: 150 g a.i./ha, 30 days after treatment
Method in brief: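 Post-emergence control of Amaranthus retroflexus was assessed in corn plots using the GB/T 17980.42-2000 method. Emulsifiable concentrates (10%) in water were applied by spraying at the 2- to 5-leaf crop stage on 20 m^2 plots, four replicates each, alongside a mesotrione 25% oil dispersion reference. Herbicidal activity was scored on 1-9 levels by weed amount relative to blank control areas.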

Barnyard grass [14] = test: Field test for weed control in a corn field; settings: 150 g a.i./ha, 30 days after treatment
Method in brief: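 Herbicidal activity against barnyard grass was assessed in corn field plots of 20 m^2, with four replicates per treatment. Compounds were applied as water-diluted 10% emulsifiable concentrates at 150 g(a.i.)/ha at the 2-5 leaf corn stage, with 25% mesotrione oil dispersion as the reference agent. Damage was scored on a 1-9 scale against untreated blank plots.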

Chenopodium album = test: Field test for weed control in a corn field; settings: 150 g a.i./ha, after treatment
Method in brief: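 Field weed-control testing in corn, run per GB/T 17980.42-2000, scored Chenopodium album on a 1-9 level scale, where each level matches a percentage range of weed remaining relative to the blank control area. Sprays of 10% emulsifiable concentrates in water delivered 150 g(a.i.)/ha at the corn 2-leaf to 5-leaf stage on 20 m^2 plots, four replicates each. Mesotrione 25% oil dispersion served as reference.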

Convolvulus arvensis = test: Field test for weed control in a corn field; settings: 150 g a.i./ha, after treatment
Method in brief: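 Post-emergence herbicidal activity on Convolvulus arvensis was scored in a corn field on a 1-9 scale, based on symptoms and damage severity. Each level corresponds to the weed remaining as a percentage of the blank control area. Sprays of 10% emulsifiable concentrate at 150 g(a.i.)/ha went on at the corn 2–5 leaf stage, with four replicates of 20 m^2 per treatment.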

Digitaria sanguinalis [15] = test: Field test for weed control in a corn field; settings: 150 g a.i./ha, after treatment
Method in brief: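 Field trial in a corn field following GB/T 17980.42-2000. Test compounds were formulated as 10% emulsifiable concentrates, diluted in water and sprayed post-emergence at 150 g(a.i.)/ha when corn had 2 to 5 leaves, with 4 replicates on 20 m^2 plots. Control of Digitaria sanguinalis was scored on a 1-9 scale based on weed damage relative to the untreated blank area.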

Portulaca oleracea = test: Field test for weed control in a corn field; settings: 150 g a.i./ha, after treatment
Method in brief: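 Post-emergence weed control was evaluated in a corn field by the GB/T 17980.42-2000 method. Emulsifiable concentrates (10%) in water were applied as sprays at 150 g(a.i.)/ha at the 2-5 leaf corn stage, in four replicate 20 m^2 plots. A 25% mesotrione oil dispersion served as control agent. Effects were graded 1-9 relative to weed remaining in blank control areas.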

Solanum nigrum = test: Field test for weed control in a corn field; settings: 150 g a.i./ha, 30 days after treatment
Method in brief: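 In a corn field trial based on GB/T 17980.42-2000, 10% emulsifiable concentrates diluted in water were sprayed at 150 g(a.i.)/ha at the 2 to 5 leaf stage of corn. Each treatment used 20 m^2 plots and was repeated 4 times, with 25% mesotrione oil dispersion as the reference agent. Solanum nigrum damage was scored on a 1-9 scale against blank control plots.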

goosegrass = test: Field test for weed control in a corn field; settings: 150 g a.i./ha, after treatment
Method in brief: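 In this field trial in corn, run per GB/T 17980.42-2000, test agents prepared as 10% emulsifiable concentrates were applied in water as sprays at 150 g(a.i.)/ha at the 2- to 5-leaf corn stage. Each treatment covered 20 m^2 and was repeated 4 times. Goosegrass control was scored 1-9 relative to weed remaining in blank control areas.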

green bristlegrass [16] = test: Field test for weed control in a corn field; settings: 150 g a.i./ha, after treatment
Method in brief: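 Herbicidal activity against green bristlegrass was assessed in corn field plots of 20 m^2 per GB/T 17980.42-2000. Test agents, formulated as 10% emulsifiable concentrates, were applied in water at 150 g(a.i.)/ha at the corn 2 leaves to 5 leaves stage, repeated 4 times. A 25% mesotrione oil dispersion served as the control agent, and weed damage was rated on levels 1-9.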

nutgrass flatsedge = test: Field test for weed control in a corn field; settings: 150 g a.i./ha, after treatment
Method in brief: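 Herbicidal effect on nutgrass flatsedge was measured in a field planted with corn, using the GB/T 17980.42-2000 method. Emulsifiable concentrates (10%) in water were sprayed at 150 g(a.i.)/ha during the 2-leaf to 5-leaf corn stage, on 20 m^2 plots repeated 4 times. 25% mesotrione oil dispersion was the control agent. Activity was scored from 1 to 9 by weed remaining relative to blank control plots.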

COc1ncccc1C(=O)NCc1cccc(Cl)c1 [Compound A91]
Herbicidal Activity Barnyard grass (Barnyard grass [1]): 1 | Herbicidal Activity Piemarker (Piemarker [2]): 1 | Herbicidal Activity Green bristlegrass (green bristlegrass [3]): 1 | Herbicidal Activity Amaranthus retroflexus (Amaranthus retroflexus [4]): 1 | Herbicidal Activity Digitaria sanguinalis (Digitaria sanguinalis [5]): 2 (equivalent to 0 to 2.5% of the weed in the blank control area) | Herbicidal Activity Humulus scandens (Humulus scandens [6]): 2 (equivalent to 0 to 2.5% of the weed in the blank control area) | Herbicidal Activity Amaranthus retroflexus (Amaranthus retroflexus [7]): 1 | Herbicidal Activity Barnyard grass (Barnyard grass [8]): 1 | Herbicidal Activity Digitaria sanguinalis (Digitaria sanguinalis [9]): 1 | Herbicidal Activity Humulus scandens (Humulus scandens [10]): 1 | Herbicidal Activity Piemarker (Piemarker [11]): 1 | Herbicidal Activity Green bristlegrass (green bristlegrass [12]): 1 | Herbicidal activity 15 days after treatment Broadleaf weed (Broadleaf weed; 15 days after treatment): 1 | Herbicidal activity 30 days after treatment Broadleaf weed (Broadleaf weed; 30 days after treatment): 1 | Herbicidal activity 15 days after treatment Cyperaceae (Cyperaceae; 15 days after treatment): 1 | Herbicidal activity 30 days after treatment Cyperaceae (Cyperaceae; 30 days after treatment): 1 | Herbicidal activity 15 days after treatment Gramineae (Gramineae; 15 days after treatment): 2 (equivalent to 0 to 2.5% of the weed in the blank control area) | Herbicidal activity 30 days after treatment Gramineae (Gramineae; 30 days after treatment): 2 (equivalent to 0 to 2.5% of the weed in the blank control area) | Post-emergence weed control effect, Acalypha australis (Acalypha australis): 2 (equivalent to 0 to 2.5% of the weed in the blank control area) | Post-emergence weed control effect, Amaranthus retroflexus (Amaranthus retroflexus [13]): 1 | Post-emergence weed control effect, Barnyard grass (Barnyard grass [14]): 1 | Post-emergence weed control effect, Chenopodium album (Chenopodium album): 1 | Post-emergence weed control effect, Convolvulus arvensis (Convolvulus arvensis): 1 | Post-emergence weed control effect, Digitaria sanguinalis (Digitaria sanguinalis [15]): 2 (equivalent to 0 to 2.5% of the weed in the blank control area) | Post-emergence weed control effect, Portulaca oleracea (Portulaca oleracea): 1 | Post-emergence weed control effect, Solanum nigrum (Solanum nigrum): 2 (equivalent to 0 to 2.5% of the weed in the blank control area) | Post-emergence weed control effect, Goose grass (goosegrass): 2 (equivalent to 0 to 2.5% of the weed in the blank control area) | Post-emergence weed control effect, Green bristlegrass (green bristlegrass [16]): 2 (equivalent to 0 to 2.5% of the weed in the blank control area) | Post-emergence weed control effect, Nutgrass flatsedge (nutgrass flatsedge): 2 (equivalent to 0 to 2.5% of the weed in the blank control area)
